Laboratory results reported in US20060063755A1, “Loxapine analogs and methods of use thereof” (priority 2004, published 2006).
Where two headings read alike, the source gives them in different places.

Key:
[1] = molecular target: T1, M1 muscarinic receptor (Homo sapiens, UniProt P11229); conditions: reference compounds; read-out: Ki of reference compounds, M1 binding assay; cited from earlier work
T1 construct: purchased PerkinElmer, Inc., Wellesley, Mass; host or cells: CHO cells
T1 sequence (P11229 1-460): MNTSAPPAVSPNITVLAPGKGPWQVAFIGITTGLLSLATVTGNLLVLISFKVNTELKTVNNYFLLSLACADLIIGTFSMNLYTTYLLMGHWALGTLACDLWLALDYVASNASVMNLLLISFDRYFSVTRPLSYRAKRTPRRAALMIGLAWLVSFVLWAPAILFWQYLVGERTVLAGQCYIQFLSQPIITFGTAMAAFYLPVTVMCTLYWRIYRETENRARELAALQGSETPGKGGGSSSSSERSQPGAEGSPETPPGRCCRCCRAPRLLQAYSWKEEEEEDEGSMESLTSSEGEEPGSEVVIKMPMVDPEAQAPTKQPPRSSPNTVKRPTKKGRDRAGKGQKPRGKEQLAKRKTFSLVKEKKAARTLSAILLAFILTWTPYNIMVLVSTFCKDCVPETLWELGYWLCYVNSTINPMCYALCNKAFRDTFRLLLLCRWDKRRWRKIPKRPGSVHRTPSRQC

[2] = molecular target: D2 receptors (Homo sapiens, UniProt P14416); assay: Dopamine D2 binding assay (human)
Protocol: Binding assays were performed using the disclosed sleep-inducing agents and derivatives selected from those listed in Table 1 in competitive binding assays with known standards for the H1 histamine receptor, and the M1, M2, and M3 muscarinic receptors, alpha 1 and alpha 2 receptors, and D1 and D2 receptors. […]

[3] = molecular target: hERG channel (Homo sapiens, UniProt Q12809); assay: hERG channel current block, whole cell recording in HEK293 cells; assay type: cell-based; conditions: HEK293 cells expressing hERG
Protocol: Other in vitro selection criteria for loxapine analogs of the invention includes hERG binding.
(Brown and Rampe (2000)).
In one embodiment of the HERG assay, the positive control (i.e., reference compound) is terfenadine (Sigma, St. Louis Mo.), which has been shown, at a concentration of 60 nM, to block HERG current by approximately 75%. Test compounds are delivered in HEPES-buffered physiological saline (HB-PS)+0.1% dimethyl sulfoxide (DMSO).
Clin. Exp. Allergy 29 Suppl 3, 174-181.
If the final DMSO concentration must be greater than 0.3%, to reach a specified test article concentration, a separate vehicle control test with an n>2 was performed at the highest final DMSO concentration.
Each cell acted as its own control. […] One concentration of the positive control article (60 nM terfenadine) was applied to two cells (n≧2).

[4] = molecular target: alpha 2 receptors; assay: Alpha 2 receptor binding assay; conditions: read-out: Ki Alpha2
Protocol: (§1) Binding assays were performed using the disclosed sleep-inducing agents and derivatives selected from those listed in Table 1 in competitive binding assays with known standards for the H1 histamine receptor, and the M1, M2, and M3 muscarinic receptors, alpha 1 and alpha 2 receptors, and D1 and D2 receptors.

[5] = molecular target: alpha 1 receptors; assay: Alpha 1 receptor binding assay; conditions: read-out: Ki Alpha1
Protocol: as §1

[6] = molecular target: H1 histamine receptor (Rattus norvegicus, UniProt P31390); assay: H1 binding, rat (footnote of Table 8)
Protocol: as §1

[7] = molecular target: T1, M1 muscarinic receptor; assay: M1 binding assay, [3H]-scopolamine N-methyl chloride, CHO cells; conditions: human recombinant
[8] = molecular target: T2, M2 muscarinic receptor (Homo sapiens, UniProt P08172); assay: M2 binding assay, [3H]-scopolamine N-methyl chloride, CHO cells; conditions: human recombinant
T2 construct: purchased PerkinElmer, Inc., Wellesley, Mass; host or cells: CHO cells
T2 sequence (P08172 1-466): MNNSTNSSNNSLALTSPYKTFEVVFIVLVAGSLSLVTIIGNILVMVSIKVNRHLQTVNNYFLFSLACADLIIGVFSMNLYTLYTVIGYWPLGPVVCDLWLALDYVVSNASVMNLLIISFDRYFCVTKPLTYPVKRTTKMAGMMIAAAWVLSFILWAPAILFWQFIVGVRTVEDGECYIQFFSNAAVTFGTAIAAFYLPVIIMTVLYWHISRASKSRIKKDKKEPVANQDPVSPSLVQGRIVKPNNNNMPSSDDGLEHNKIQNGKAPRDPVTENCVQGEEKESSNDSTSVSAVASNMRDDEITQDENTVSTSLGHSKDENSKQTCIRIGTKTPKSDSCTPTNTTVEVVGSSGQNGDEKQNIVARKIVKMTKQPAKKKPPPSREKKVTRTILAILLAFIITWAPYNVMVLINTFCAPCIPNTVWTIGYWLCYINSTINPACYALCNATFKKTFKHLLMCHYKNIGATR

[9] = molecular target: T3, M3 muscarinic receptor (Homo sapiens, UniProt P20309); assay: M3 binding assay, [3H]-scopolamine N-methyl chloride, CHO cells; conditions: human recombinant
T3 construct: purchased PerkinElmer, Inc., Wellesley, Mass; host or cells: CHO cells

[10] = molecular target: T4, H1 histamine receptor (Bos taurus, UniProt P30546); assay: H1 competitive binding assay, [3H]pyrilamine, bovine cerebellar membranes; conditions: bovine cerebellar membrane
T4 construct: the receptors were obtained from bovine cerebellar membrane tissue; from tissue; host or cells: bovine cerebellar membranes

[11] = molecular target: H1 histamine receptor (Homo sapiens, UniProt P35367); assay: H1 binding, human (footnote of Table 8)
Protocol: as §1

[12] = molecular target: D2 receptors (Rattus norvegicus, UniProt P61169); assay: Dopamine D2 binding, rat
Protocol: as §1

[13] = test system: male Wistar rats; assay: Sleep-wakefulness monitoring (SCORE-2000, EEG/EMG) after oral dosing at CT-18; assay type: in vivo, rat
Protocol: Food and water were available ad libitum.
Treatments were administered orally as a bolus.
A parallel group study design was employed.
The results of NREM and LUSB parameters were measured for the loxapine derivatives such as Compounds 1, 2, 3, 5, 6, 7, 8, 9, 10, 12, 14, 17, 19, 20, 21, 23, 30, 31, 32, 39, 40, 42, 46, 50, 51, 52, 54, 56, and 58 and other compounds listed in Table 1.

[14] = molecular target: Dopamine, D1 (Homo sapiens, UniProt P21728); assay: Dopamine D1 (human recombinant) binding assay
Protocol: as §1
Dopamine, D1 (human recombinant) binding assay was performed according to published procedures. See, e.g., Jarvie, et al. J. Recept Res., 13(1-4): 573-90 (1993); and Billard, et al. Life Sciences, 35(18): 1885-93 (1984), with modifications

[15] = molecular target: Dopamine, D1 (Rattus norvegicus, UniProt P18901); assay: Dopamine D1 binding, rat
Protocol: as §1

Chain of D2 receptors (Rattus norvegicus, UniProt P61169) (P61169 whole entry): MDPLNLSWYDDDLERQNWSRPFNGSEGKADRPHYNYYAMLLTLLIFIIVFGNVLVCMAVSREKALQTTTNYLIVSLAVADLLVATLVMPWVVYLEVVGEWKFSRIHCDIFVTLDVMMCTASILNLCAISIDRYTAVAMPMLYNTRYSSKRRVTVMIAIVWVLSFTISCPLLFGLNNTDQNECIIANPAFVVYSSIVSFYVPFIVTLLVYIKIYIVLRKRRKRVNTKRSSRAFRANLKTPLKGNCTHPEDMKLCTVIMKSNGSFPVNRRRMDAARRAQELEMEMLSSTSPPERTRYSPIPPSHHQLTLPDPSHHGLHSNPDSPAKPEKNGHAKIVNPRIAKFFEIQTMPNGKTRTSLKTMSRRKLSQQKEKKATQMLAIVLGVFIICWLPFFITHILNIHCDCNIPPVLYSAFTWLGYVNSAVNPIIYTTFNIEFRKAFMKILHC
Chain of D2 receptors (Homo sapiens, UniProt P14416) (P14416 whole entry): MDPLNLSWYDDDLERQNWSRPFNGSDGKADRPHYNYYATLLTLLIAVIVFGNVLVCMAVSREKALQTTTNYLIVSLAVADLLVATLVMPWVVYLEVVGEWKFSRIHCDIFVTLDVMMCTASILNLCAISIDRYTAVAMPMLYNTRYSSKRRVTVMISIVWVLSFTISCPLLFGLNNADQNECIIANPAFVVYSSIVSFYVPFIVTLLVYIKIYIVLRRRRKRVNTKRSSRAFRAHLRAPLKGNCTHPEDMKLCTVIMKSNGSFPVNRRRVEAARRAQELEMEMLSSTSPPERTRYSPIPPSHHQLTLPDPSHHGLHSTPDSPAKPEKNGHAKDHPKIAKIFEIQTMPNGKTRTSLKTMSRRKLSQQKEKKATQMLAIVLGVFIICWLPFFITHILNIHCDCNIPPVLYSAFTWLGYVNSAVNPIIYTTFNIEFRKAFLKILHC
Chain of hERG channel (Q12809 whole entry): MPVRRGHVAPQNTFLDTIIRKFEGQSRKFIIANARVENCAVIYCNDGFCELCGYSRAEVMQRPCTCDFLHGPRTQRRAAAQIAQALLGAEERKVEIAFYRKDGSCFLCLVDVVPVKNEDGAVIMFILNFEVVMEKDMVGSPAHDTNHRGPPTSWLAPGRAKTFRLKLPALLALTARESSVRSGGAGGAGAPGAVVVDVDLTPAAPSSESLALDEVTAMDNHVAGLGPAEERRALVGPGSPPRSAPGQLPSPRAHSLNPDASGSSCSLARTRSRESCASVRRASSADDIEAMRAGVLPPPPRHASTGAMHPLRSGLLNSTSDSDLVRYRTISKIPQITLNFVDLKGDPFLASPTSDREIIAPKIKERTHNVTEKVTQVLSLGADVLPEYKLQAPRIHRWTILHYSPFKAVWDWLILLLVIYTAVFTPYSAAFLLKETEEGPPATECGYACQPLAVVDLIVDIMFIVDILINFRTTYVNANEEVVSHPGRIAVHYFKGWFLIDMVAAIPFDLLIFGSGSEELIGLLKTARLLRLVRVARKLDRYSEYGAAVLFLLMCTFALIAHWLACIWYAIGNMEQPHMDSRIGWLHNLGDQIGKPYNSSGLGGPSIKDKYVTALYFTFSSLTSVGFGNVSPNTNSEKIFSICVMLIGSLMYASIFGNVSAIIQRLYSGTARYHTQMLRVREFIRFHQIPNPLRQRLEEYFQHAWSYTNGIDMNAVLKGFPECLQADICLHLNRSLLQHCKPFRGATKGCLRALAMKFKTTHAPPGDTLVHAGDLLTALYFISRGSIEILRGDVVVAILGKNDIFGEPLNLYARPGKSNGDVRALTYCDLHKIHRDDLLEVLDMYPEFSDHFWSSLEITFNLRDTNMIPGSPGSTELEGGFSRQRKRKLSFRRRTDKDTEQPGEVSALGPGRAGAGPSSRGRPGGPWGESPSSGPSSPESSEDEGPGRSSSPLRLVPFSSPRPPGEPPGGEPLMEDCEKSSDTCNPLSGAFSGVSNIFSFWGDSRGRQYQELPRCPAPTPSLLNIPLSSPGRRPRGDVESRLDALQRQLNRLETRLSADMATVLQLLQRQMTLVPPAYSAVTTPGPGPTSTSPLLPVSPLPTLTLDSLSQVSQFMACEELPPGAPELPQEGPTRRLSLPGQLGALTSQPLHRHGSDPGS
Chain of Dopamine, D1 (Homo sapiens, UniProt P21728) (P21728 whole entry): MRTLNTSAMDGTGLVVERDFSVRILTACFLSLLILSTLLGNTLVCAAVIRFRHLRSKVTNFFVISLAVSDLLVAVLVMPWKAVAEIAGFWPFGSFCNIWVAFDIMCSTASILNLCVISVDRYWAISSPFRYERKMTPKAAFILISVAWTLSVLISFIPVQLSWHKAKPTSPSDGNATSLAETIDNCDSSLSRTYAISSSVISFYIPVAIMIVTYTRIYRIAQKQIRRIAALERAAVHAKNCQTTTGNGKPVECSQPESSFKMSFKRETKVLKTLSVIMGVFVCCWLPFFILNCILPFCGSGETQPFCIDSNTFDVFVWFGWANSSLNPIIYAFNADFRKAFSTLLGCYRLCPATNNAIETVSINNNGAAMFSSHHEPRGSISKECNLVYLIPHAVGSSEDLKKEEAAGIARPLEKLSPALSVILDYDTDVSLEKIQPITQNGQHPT
T3 sequence (P20309 whole entry): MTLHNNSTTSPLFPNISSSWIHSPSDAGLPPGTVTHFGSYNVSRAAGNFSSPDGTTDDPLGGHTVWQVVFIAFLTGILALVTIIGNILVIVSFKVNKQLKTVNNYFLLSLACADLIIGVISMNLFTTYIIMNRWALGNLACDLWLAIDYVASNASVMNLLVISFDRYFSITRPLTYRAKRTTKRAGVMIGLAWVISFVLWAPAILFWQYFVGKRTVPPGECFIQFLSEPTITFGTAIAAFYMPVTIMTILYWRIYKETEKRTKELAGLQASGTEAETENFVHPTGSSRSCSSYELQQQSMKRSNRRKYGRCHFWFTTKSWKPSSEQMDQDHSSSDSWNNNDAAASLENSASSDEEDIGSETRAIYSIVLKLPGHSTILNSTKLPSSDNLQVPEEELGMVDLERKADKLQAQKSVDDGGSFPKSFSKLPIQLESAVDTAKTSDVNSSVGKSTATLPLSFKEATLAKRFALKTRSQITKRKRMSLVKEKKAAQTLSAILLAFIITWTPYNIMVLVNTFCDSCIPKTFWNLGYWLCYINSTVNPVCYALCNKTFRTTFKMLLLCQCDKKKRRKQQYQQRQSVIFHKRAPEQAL
T4 sequence (P30546 whole entry): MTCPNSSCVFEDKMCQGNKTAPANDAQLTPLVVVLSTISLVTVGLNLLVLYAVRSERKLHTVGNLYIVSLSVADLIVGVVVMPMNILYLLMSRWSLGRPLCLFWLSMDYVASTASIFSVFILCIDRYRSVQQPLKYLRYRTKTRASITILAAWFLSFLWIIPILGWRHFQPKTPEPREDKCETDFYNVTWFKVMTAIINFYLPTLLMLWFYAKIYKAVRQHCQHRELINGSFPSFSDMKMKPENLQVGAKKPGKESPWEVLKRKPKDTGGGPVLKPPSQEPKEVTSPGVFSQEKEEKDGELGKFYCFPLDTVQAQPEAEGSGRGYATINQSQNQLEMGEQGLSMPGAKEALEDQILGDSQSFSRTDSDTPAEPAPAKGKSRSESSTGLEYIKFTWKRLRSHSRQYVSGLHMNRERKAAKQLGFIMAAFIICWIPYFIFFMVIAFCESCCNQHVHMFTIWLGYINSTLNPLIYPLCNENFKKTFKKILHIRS
Chain of H1 histamine receptor (Rattus norvegicus, UniProt P31390) (P31390 whole entry): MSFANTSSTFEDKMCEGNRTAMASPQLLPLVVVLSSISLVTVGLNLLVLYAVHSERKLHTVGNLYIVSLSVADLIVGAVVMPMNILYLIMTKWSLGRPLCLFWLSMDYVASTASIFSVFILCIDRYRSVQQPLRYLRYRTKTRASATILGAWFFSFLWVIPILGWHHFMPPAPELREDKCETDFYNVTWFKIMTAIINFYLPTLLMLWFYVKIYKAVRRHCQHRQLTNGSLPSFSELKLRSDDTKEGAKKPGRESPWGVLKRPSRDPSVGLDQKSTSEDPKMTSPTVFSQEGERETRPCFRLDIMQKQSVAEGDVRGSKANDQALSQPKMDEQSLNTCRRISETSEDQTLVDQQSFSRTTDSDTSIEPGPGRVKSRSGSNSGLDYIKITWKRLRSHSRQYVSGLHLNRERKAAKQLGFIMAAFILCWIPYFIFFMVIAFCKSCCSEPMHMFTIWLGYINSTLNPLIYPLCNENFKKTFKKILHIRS
Chain of H1 histamine receptor (Homo sapiens, UniProt P35367) (P35367 whole entry): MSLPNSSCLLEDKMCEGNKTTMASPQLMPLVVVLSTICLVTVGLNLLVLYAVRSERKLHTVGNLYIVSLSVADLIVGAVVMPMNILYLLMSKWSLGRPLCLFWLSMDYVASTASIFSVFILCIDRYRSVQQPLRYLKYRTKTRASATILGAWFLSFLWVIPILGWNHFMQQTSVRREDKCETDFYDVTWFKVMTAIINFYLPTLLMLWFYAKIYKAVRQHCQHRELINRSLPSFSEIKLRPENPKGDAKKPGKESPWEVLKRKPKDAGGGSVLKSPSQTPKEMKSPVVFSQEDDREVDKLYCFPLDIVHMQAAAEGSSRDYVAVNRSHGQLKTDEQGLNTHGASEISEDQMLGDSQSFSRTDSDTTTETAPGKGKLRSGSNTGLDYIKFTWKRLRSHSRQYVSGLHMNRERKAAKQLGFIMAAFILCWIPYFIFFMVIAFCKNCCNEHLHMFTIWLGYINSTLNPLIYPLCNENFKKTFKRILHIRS
Chain of Dopamine, D1 (Rattus norvegicus, UniProt P18901) (P18901 whole entry): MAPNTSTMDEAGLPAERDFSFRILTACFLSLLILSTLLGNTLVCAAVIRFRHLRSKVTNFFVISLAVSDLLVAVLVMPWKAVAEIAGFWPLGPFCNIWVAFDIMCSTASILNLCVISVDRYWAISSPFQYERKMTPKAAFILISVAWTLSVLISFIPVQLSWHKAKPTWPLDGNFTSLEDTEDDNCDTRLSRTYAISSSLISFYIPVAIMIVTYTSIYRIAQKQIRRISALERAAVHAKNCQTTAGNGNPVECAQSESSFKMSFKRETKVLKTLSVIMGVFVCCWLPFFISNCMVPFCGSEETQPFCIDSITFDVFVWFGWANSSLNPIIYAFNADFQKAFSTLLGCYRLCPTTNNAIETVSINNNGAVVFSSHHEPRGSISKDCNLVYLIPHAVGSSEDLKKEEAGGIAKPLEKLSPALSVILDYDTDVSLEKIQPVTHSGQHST

| Structure (SMILES) | Ki [1] [µM] | Ki [2] [µM] | hERG at 10 micromolar (% blocking of the hERG channel) [3] [%] | Ki [4] [µM] | Ki [5] [µM] | Ki [6] [µM] | Ki [7] [µM] | Ki [8] [µM] | Ki [9] [µM] | Ki [10] [µM] | Ki [11] [µM] | Ki [12] [µM] | NREM ([13]; dose 3 mg/kg) [min] | Ki [14] [µM] | Ki [15] [µM] | NREM ([13]; dose 30 mg/kg) [min] |
| --- | --- | --- | --- | --- | --- | --- | --- | --- | --- | --- | --- | --- | --- | --- | --- | --- |
| C[N+]1(C)CCC(OC(=O)C(c2ccccc2)c2ccccc2)CC1 [4-DAMP methiodide] | 0.00027 | – | – | – | – | – | – | – | – | – | – | – | – | – | – | – |
| CC(C)(CN1CCN(C2=Nc3ccccc3Oc3ccccc32)CC1)C(=O)O [Compound 1] | – | > 10 | 6.2 | > 10 | > 10 | 0.0115 | > 10 | > 10 | > 10 | 0.0403 | 0.0237 | > 10 | 39 ± 6 | > 10 | > 10 | – |
| CC(C)(CN1CCN(C2=Nc3ccccc3Oc3ccc(F)cc32)CC1)C(=O)O [Compound 4] | – | > 10 | 8 | > 10 | > 10 | – | > 10 | – | > 10 | – | – | 2.73 | – | > 10 | – | – |
| CC(C)(CN1CCN(C2=Nc3ccccc3Oc3ccc(O)cc32)CC1)C(=O)O [Compound 14] | – | > 10 | 0.30 | > 10 | > 10 | – | > 10 | > 10 | > 10 | 0.283 | – | – | – | 0.942 | – | – |
| Cc1ccc2c(c1)N=C(N1CCN(CC(C)(C)C(=O)O)CC1)c1ccccc1O2 [Compound 19] | – | 3.16 | 9.90 | > 10 | > 10 | – | > 10 | > 10 | > 10 | 0.0395 | – | – | – | 6.8 | – | – |
| Cc1ccc2c(c1)N=C(N1CCN(CC(C)(C)C(=O)O)CC1)c1cc(C)ccc1O2 [Compound 20] | – | 1.59 | 5.30 | > 10 | 1.96 | – | > 10 | > 10 | > 10 | 0.0768 | – | – | – | 1.93 | – | – |
| COc1ccc2c(c1)N=C(N1CCN(CC(C)(C)C(=O)O)CC1)c1ccccc1O2 [Compound 21] | – | > 10 | 0 | > 10 | > 10 | – | > 10 | > 10 | > 10 | 0.0572 | – | – | – | > 10 | – | – |
| COc1ccc2c(c1)N=C(N1CCN(CC(C)(C)C(=O)O)CC1)c1cc(OC)ccc1O2 [Compound 23] | – | > 10 | 8.90 | > 10 | > 10 | – | > 10 | > 10 | > 10 | 0.135 | – | – | – | > 10 | – | – |
| Cc1ccc2c(c1)Oc1ccccc1C(N1CCN(CC(C)(C)C(=O)O)CC1)=N2 [Compound 30] | – | > 10 | 4.50 | > 10 | > 10 | – | > 10 | > 10 | > 10 | 0.0906 | – | – | – | 5.06 | – | – |
| COc1ccc2c(c1)Oc1ccccc1C(N1CCN(CC(C)(C)C(=O)O)CC1)=N2 [Compound 32] | – | > 10 | 1.60 | > 10 | > 10 | – | > 10 | > 10 | > 10 | 3.77 | – | – | – | > 10 | – | – |
| COc1ccc2c(c1)Oc1ccccc1N=C2N1CCN(CC(C)(C)C(=O)O)CC1 [Compound 39] | – | > 10 | 61.40 | > 10 | > 10 | – | > 10 | > 10 | > 10 | 0.0987 | – | – | – | > 10 | – | – |
| CC(C)(CN1CCN(C2=Nc3ccccc3Oc3ccccc32)CC1)C(=O)NS(C)(=O)=O [Compound 40] | – | 1.87 | 5.6 | > 10 | > 10 | 0.0588 | > 10 | > 10 | > 10 | 0.0228 | 0.0317 | > 10 | – | > 10 | > 10 | 43 ± 4 |
| Cc1ccc2c(c1)C(N1CCN(CC(C)(C)C(=O)O)CC1)=Nc1cc(Br)ccc1O2 [Compound 50] | – | 0.36 | 45.00 | 1.95 | 0.595 | – | > 10 | > 10 | > 10 | 0.0318 | – | – | – | 1.14 | – | – |
| COc1ccc2c(c1)C(N1CCN(CC(C)(C)C(=O)O)CC1)=Nc1cc(Br)ccc1O2 [Compound 51] | – | 0.17 | 32 | 0.966 | 0.148 | – | > 10 | > 10 | > 10 | 0.0278 | – | – | – | 1.04 | – | – |
